Laboratory results: US12538924B2, “Pesticidally active heterocyclic derivatives with sulfur containing substituents” (SYNGENTA CROP PROTECTION AG, priority 2019, dated 2026)

Columns and labels:
Type in all cases: in vivo
[1] = tested on: Bemisia tabaci (Cotton White Fly); assay: Bemisia tabaci (Cotton White Fly): Feeding/Contact Activity; settings: foliar, 144 h, application rate of 200 ppm, adult white flies on sprayed cotton leaf discs, 6 days after incubation
Description: Example B1: Bemisia tabaci (Cotton White Fly): Feeding/Contact Activity
Cotton leaf discs were placed on agar in 24-well microtiter plates and sprayed with aqueous test solutions prepared from 10'000 ppm DMSO stock solutions. After drying the leaf discs were infested with adult white flies. The samples were checked for mortality 6 days after incubation.

[2] = tested on: Diabrotica Balteata (Corn Root Worm); assay: Diabrotica balteata (Corn Root Worm), sprayed maize sprouts; settings: 96 h, application rate of 200 ppm, L2 larvae on sprayed maize sprouts, 4 days after infestation, read-out: effect in at least one of the two categories (mortality or growth inhibition)
Description: Example B2: Diabrotica Balteata (Corn Root Worm)
Maize sprouts placed onto an agar layer in 24-well microtiter plates were treated with aqueous test solutions prepared from 10'000 ppm DMSO stock solutions by spraying. After drying, the plates were infested with L2 larvae (6 to 10 per well). The samples were assessed for mortality and growth inhibition in comparison to untreated samples 4 days after infestation.

[3] = tested on: Plutella xylostella (Diamond Back Moth); assay: Plutella xylostella (Diamond Back Moth), treated artificial diet; settings: 192 h, application rate of 200 ppm, eggs on treated artificial diet, 8 days after infestation, read-out: effect in at least one of the two categories (mortality or growth inhibition)
Description: Example B5: Plutella xylostella (Diamond Back Moth)
24-well microtiter plates with artificial diet were treated with aqueous test solutions prepared from 10'000 ppm DMSO stock solutions by pipetting. After drying, Plutella eggs were pipetted through a plastic stencil onto a gel blotting paper and the plate was closed with it. The samples were assessed for mortality and growth inhibition in comparison to untreated samples 8 days after infestation.

[4] = tested on: Myzus persicae (Green Peach Aphid); assay: Myzus persicae (Green Peach Aphid): Feeding/Contact Activity; settings: foliar, 144 h, application rate of 200 ppm, aphid population of mixed ages on sprayed sunflower leaf discs, 6 days after infestation
Description: Example B6: Myzus persicae (Green Peach Aphid): Feeding/Contact Activity
Sunflower leaf discs were placed onto agar in a 24-well microtiter plate and sprayed with aqueous test solutions prepared from 10'000 ppm DMSO stock solutions. After drying, the leaf discs were infested with an aphid population of mixed ages. The samples were assessed for mortality 6 days after infestation.

[5] = tested on: Spodoptera littoralis (Egyptian Cotton Leaf Worm); assay: Spodoptera littoralis (Egyptian Cotton Leaf Worm), sprayed cotton leaf discs; settings: foliar, 72 h, application rate of 200 ppm, L1 larvae on sprayed cotton leaf discs, 3 days after infestation, read-out: control (mortality, anti-feeding effect or growth inhibition)
Description: Example B8: Spodoptera littoralis (Egyptian Cotton Leaf Worm)
Cotton leaf discs were placed onto agar in 24-well microtiter plates and sprayed with aqueous test solutions prepared from 10'000 ppm DMSO stock solutions. After drying the leaf discs were infested with five L1 larvae. The samples were assessed for mortality, anti-feeding effect, and growth inhibition in comparison to untreated samples 3 days after infestation. Control of Spodoptera littoralis by a test sample is given when at least one of the categories mortality, anti-feedant effect, and growth inhibition is higher than the untreated sample.

[6] = tested on: Euschistus heros (Neotropical Brown Stink Bug); assay: Euschistus heros (Neotropical Brown Stink Bug), sprayed soybean leaves; settings: 120 h, application rate of 200 ppm, N2 nymphs on sprayed soybean leaves, 5 days after infestation, read-out: effect in at least one of the two categories (mortality or growth inhibition)
Description: Example B3: Euschistus heros (Neotropical Brown Stink Bug)
Soybean leaves on agar in 24-well microtiter plates were sprayed with aqueous test solutions prepared from 10'000 ppm DMSO stock solutions. After drying the leaves were infested with N2 nymphs. The samples were assessed for mortality and growth inhibition in comparison to untreated samples 5 days after infestation.

[7] = tested on: Myzus persicae (Green Peach Aphid); assay: Myzus persicae (Green Peach Aphid): Systemic Activity; settings: 144 h, test rate of 24 ppm, roots of infested pea seedlings placed into test solutions, 6 days
Description: Example B7: Myzus persicae (Green Peach Aphid): Systemic Activity
Roots of pea seedlings infested with an aphid population of mixed ages were placed directly into aqueous test solutions prepared from 10'000 DMSO stock solutions. The samples were assessed for mortality 6 days after placing seedlings into test solutions.

CCS(=O)(=O)c1cc(Br)cnc1N1Cc2cnc(C(F)(F)F)cc2C1=O [Compound P7, 2-(5-bromo-3-ethylsulfonyl-2-pyridyl)-6-(trifluoromethyl)-3H-pyrrolo[3,4-c]pyridin-1-one]
≥ 80%: mortality at 200 ppm [1] | percent effect (mortality or growth inhibition) at 200 ppm [2] | percent effect (mortality or growth inhibition) at 200 ppm [3] | mortality at 200 ppm [4] | percent control (mortality, anti-feedant effect or growth inhibition) at 200 ppm [5]

CCS(=O)(=O)c1cc(C2CC2)cnc1N1Cc2cnc(C(F)(F)F)cc2C1=O [Compound P14, 2-(5-cyclopropyl-3-ethylsulfonyl-2-pyridyl)-6-(trifluoromethyl)-3H-pyrrolo[3,4-c]pyriclin-1-one]
≥ 80%: percent effect (mortality or growth inhibition) at 200 ppm [2] | percent effect (mortality or growth inhibition) at 200 ppm [6] | percent effect (mortality or growth inhibition) at 200 ppm [3] | mortality at 200 ppm [4] | mortality at 24 ppm [7] | percent control (mortality, anti-feedant effect or growth inhibition) at 200 ppm [5]

CCS(=O)(=O)c1ccc(C2CC2)nc1N1Cc2cnc(C(F)(F)F)cc2C1=O [Compound P15, 2-(6-cyclopropyl-3-ethylsulfonyl-2-pyridyl)-6-(trifluoromethyl)-3H-pyrrolo[3,4-c]pyriclin-1-one]
≥ 80%: percent effect (mortality or growth inhibition) at 200 ppm [2] | percent effect (mortality or growth inhibition) at 200 ppm [6] | percent effect (mortality or growth inhibition) at 200 ppm [3] | mortality at 200 ppm [4] | mortality at 24 ppm [7] | percent control (mortality, anti-feedant effect or growth inhibition) at 200 ppm [5]

CCS(=O)(=O)c1ccc(-c2ncccn2)nc1N1Cc2cnc(C(F)(F)F)cc2C1=O [Compound P16, 2-(3-ethylsulfonyl-6-pyrimidin-2-yl-2-pyridyl)-6-(trifluoromethyl)-3H-pyrrolo[3,4-c]pyriclin-1-one]
≥ 80%: percent effect (mortality or growth inhibition) at 200 ppm [2] | percent effect (mortality or growth inhibition) at 200 ppm [6] | percent effect (mortality or growth inhibition) at 200 ppm [3] | mortality at 200 ppm [4] | mortality at 24 ppm [7] | percent control (mortality, anti-feedant effect or growth inhibition) at 200 ppm [5]

CCS(=O)(=O)c1ccc(N2CCOC2=O)nc1N1Cc2cnc(C(F)(F)F)cc2C1=O [Compound P17, 3-[5-ethylsulfonyl-6-[1-oxo-6-(trifluoromethyl)-3H-pyrrolo[3,4-c]pyridin-2-yl]-2-pyridyl]oxazolidin-2-one]
≥ 80%: percent effect (mortality or growth inhibition) at 200 ppm [2] | percent effect (mortality or growth inhibition) at 200 ppm [3] | mortality at 200 ppm [4] | mortality at 24 ppm [7] | percent control (mortality, anti-feedant effect or growth inhibition) at 200 ppm [5]

CCC(=O)N(C)c1ccc(S(=O)(=O)CC)c(N2Cc3cnc(C(F)(F)F)cc3C2=O)n1 [Compound P19, N-[5-ethylsulfonyl-6-[1-oxo-6-(trifluoromethyl)-3H-pyrrolo[3,4-c]pyridin-2-yl]-2-pyridyl]-N-methyl-propanamide]
≥ 80%: percent effect (mortality or growth inhibition) at 200 ppm [2] | percent effect (mortality or growth inhibition) at 200 ppm [6] | percent effect (mortality or growth inhibition) at 200 ppm [3] | mortality at 200 ppm [4] | mortality at 24 ppm [7] | percent control (mortality, anti-feedant effect or growth inhibition) at 200 ppm [5]

CCS(=O)(=O)c1ccc(N(C)C(C)=O)nc1N1Cc2cnc(C(F)(F)F)cc2C1=O [Compound P20, N-[5-ethylsulfonyl-6-[1-oxo-6-(trifluoromethyl)-3H-pyrrolo[3,4-c]pyridin-2-yl]-2-pyridyl]-N-methyl-acetamide]
≥ 80%: percent effect (mortality or growth inhibition) at 200 ppm [2] | percent effect (mortality or growth inhibition) at 200 ppm [6] | percent effect (mortality or growth inhibition) at 200 ppm [3] | mortality at 200 ppm [4] | mortality at 24 ppm [7] | percent control (mortality, anti-feedant effect or growth inhibition) at 200 ppm [5]

CCS(=O)(=O)c1cccnc1N1Cc2ccc(C(F)(F)F)cc2C1=O [Compound P21, 2-(3-ethylsulfonyl-2-pyridyl)-6-(trifluoromethyl)isoindolin-1-one]
≥ 80%: mortality at 200 ppm [1] | percent effect (mortality or growth inhibition) at 200 ppm [2] | percent effect (mortality or growth inhibition) at 200 ppm [6] | percent effect (mortality or growth inhibition) at 200 ppm [3] | mortality at 200 ppm [4] | mortality at 24 ppm [7] | percent control (mortality, anti-feedant effect or growth inhibition) at 200 ppm [5]

CCS(=O)(=O)c1cccnc1N1Cc2ncc(C(F)(F)F)cc2C1=O [Compound P22, 6-(3-ethylsulfonyl-2-pyridyl)-3-(trifluoromethyl)-7H-pyrrolo[3,4-b]pyridin-5-one]
≥ 80%: percent effect (mortality or growth inhibition) at 200 ppm [2] | percent effect (mortality or growth inhibition) at 200 ppm [3] | mortality at 200 ppm [4] | mortality at 24 ppm [7] | percent control (mortality, anti-feedant effect or growth inhibition) at 200 ppm [5]

CCS(=O)(=O)c1cccnc1N1Cc2ccc(S(=O)(=O)C(F)(F)F)cc2C1=O [Compound P23, 2-(3-ethylsulfonyl-2-pyridyl)-6-(trifluoromethylsulfonyl)isoindolin-1-one]
≥ 80%: mortality at 200 ppm [1] | percent effect (mortality or growth inhibition) at 200 ppm [2] | percent effect (mortality or growth inhibition) at 200 ppm [6] | percent effect (mortality or growth inhibition) at 200 ppm [3] | mortality at 200 ppm [4] | mortality at 24 ppm [7] | percent control (mortality, anti-feedant effect or growth inhibition) at 200 ppm [5]

CCS(=O)(=O)c1cccnc1N1Cc2ccc(OC(F)(F)F)cc2C1=O [Compound P24, 2-(3-ethylsulfonyl-2-pyridyl)-6-(trifluoromethoxy)isoindolin-1-one]
≥ 80%: percent effect (mortality or growth inhibition) at 200 ppm [2] | percent effect (mortality or growth inhibition) at 200 ppm [3] | mortality at 200 ppm [4] | percent control (mortality, anti-feedant effect or growth inhibition) at 200 ppm [5]

CCS(=O)(=O)c1cc(C2(C#N)CC2)cnc1N1Cc2ccc(OC(F)(F)F)cc2C1=O [Compound P25, 1-[5-ethylsulfonyl-6-[1-oxo-6-(trifluoromethoxy)isoindolin-2-yl]-3-pyridyl]cyclopropanecarbonitrile]
≥ 80%: mortality at 200 ppm [1] | percent effect (mortality or growth inhibition) at 200 ppm [2] | percent effect (mortality or growth inhibition) at 200 ppm [6] | percent effect (mortality or growth inhibition) at 200 ppm [3] | mortality at 200 ppm [4] | percent control (mortality, anti-feedant effect or growth inhibition) at 200 ppm [5]

CCS(=O)(=O)c1cc(C2(C#N)CC2)cnc1N1Cc2ccc(C(F)(F)F)cc2C1=O [Compound P26]
≥ 80%: mortality at 200 ppm [1] | percent effect (mortality or growth inhibition) at 200 ppm [2] | percent effect (mortality or growth inhibition) at 200 ppm [6] | percent effect (mortality or growth inhibition) at 200 ppm [3] | mortality at 200 ppm [4] | percent control (mortality, anti-feedant effect or growth inhibition) at 200 ppm [5]

CCS(=O)(=O)c1cc(C(C)(C)C#N)cnc1N1Cc2ncc(C(F)(F)F)cc2C1=O [Compound P27, 2-[5-ethylsulfonyl-6-[5-oxo-3-(trifluoromethyl)-7H-pyrrolo[3,4-b]pyridin-6-yl]-3-pyridyl]-2-methyl-propanenitrile]
≥ 80%: mortality at 200 ppm [1] | percent effect (mortality or growth inhibition) at 200 ppm [2] | percent effect (mortality or growth inhibition) at 200 ppm [3] | mortality at 24 ppm [7] | percent control (mortality, anti-feedant effect or growth inhibition) at 200 ppm [5]
